Experiment: Post-CABG Trial: lipid response to lovastatin therapy (baseline vs post-treatment lipid levels)
Format: in vivo, human
Protocol: As described herein, the inventors asked whether LPL haplotypes influence response to lipid-lowering therapy. They studied 830 subjects from the Post-Coronary Artery Bypass Graft trial, in which subjects with at least one patent saphenous vein graft were treated moderately or aggressively with lovastatin. A lipid profile was obtained at baseline and 4-5 years after treatment. 12 SNPs spanning the 3′ end of LPL were genotyped using the 5′-exonuclease (Taqman MBG) reaction. Haplotypes were constructed using the accelerated expectation maximization algorithm implemented in the program Haploview. Association with lipid response was evaluated using analysis of covariance (ANCOVA). Age, body mass index, race, current smoking status, time between CABG and study enrollment, and lovastatin treatment group were taken as covariates in the association analyses. […] Conversely, Haplotypes 6, 7, and 8 were each associated with increased HDL-C response to therapy compared to respective non-carriers. Haplotype 2 was associated with a smaller increment in triglycerides (Haplotype 2 carriers: +2.6% versus non-carriers: +11.8% change in triglycerides, P=0.02). These effects of LPL haplotypes on HDL-C and triglyceride response were independent of whether subjects were in the intensive or moderate treatment group. […] The most common haplotype, haplotype 1, was protective against graft worsening or occlusion. LPL may influence atherosclerosis risk through pleiotropic effects on each aspect of the metabolic syndrome.
This genetic association study is ancillary to the Post-Coronary Artery Bypass Graft Trial (Post-CABG Trial) (Taylor K D, Genet Med 2004, 6: 481-486; The Post Coronary Artery Bypass Graft Trial Investigators, N Engl J Med 1997, 336: 153-162). A total of 1351 subjects from seven clinical centers throughout North America were included in the clinical trial and all were eligible as participants in this genetic ancillary study. Inclusion and exclusion criteria have been previously described (The Post Coronary Artery Bypass Graft Trial Investigators, N Engl J Med 1997, 336: 153-162). Subjects were randomly assigned for treatment to lower LDL-cholesterol levels with lovastatin, aggressively (target LDL 1.55-2.20 mmol/L (60-85 mg/dL)), cholestryramine added to lovastatin if necessary to reach target) or moderately (target LDL 3.36-3.62 mmol/L (130-140 mg/dL)). For the genetic study, DNA was isolated from 903 subjects following standard protocols. Follow-up complete angiographic data, lipid values, and DNA were available from 891 of these individuals. Subjects in this genetic study were collected in the latter years of the larger Post-CABG trial.
All demographic, family history, medical history, and clinical data were collected as part of the Post-CABG Trial.14 The progression of atherosclerosis was quantitatively determined by comparison of an initial angiogram at enrollment with a follow-up angiogram repeated an average of 4.3 years later. Baseline and follow-up angiography were obtained with catheterization techniques that permitted computer-assisted quantitative measurement. An initially patent graft was defined as having progression of atherosclerosis if there was a decrease of 0.6 mm or more in lumen diameter at the site of greatest change at follow-up. Subjects with “progression of atherosclerosis” were defined as those subjects with one or more grafts showing progression. Graft occlusion was also assessed. Baseline and post-treatment lipid levels (total cholesterol, TC; LDL-cholesterol, LDL-C; HDL-cholesterol, HDL-C; and triglycerides, TG) were obtained.
The primary phenotypes analyzed for association with LPL haplotypes were: a) the progression of atherosclerosis, and b) lipid response to lovastatin therapy. Secondary analyses included association of the LPL haplotypes with baseline lipid and systolic and diastolic blood pressure (SBP and DBP) measurements. […]

[1] = 891 post-CABG subjects, mean ± SD (range)
[2] = aggressive treatment group (target LDL 60-85 mg/dL, cholestyramine added if necessary)
[3] = moderate treatment group (target LDL 130-140 mg/dL)

SMILES: CC[C@H](C)C(=O)O[C@H]1C[C@@H](C)C=C2C=C[C@H](C)[C@H](CC[C@@H]3C[C@@H](O)CC(=O)O3)[C@H]21 [lovastatin]
- HDL-C response [1]: 13.8 ± 24.4 (−61.9-153.1) %
- LDL-C response [1]: −25.7 ± 20.6 (−78.8-45.9) %
- Total cholesterol response [1]: −15.3 ± 16.3 (−58.4-43.5) %
- Triglyceride response [1]: 7.5 ± 53.0 (−81.6-330.2) %
- reduction in LDL-C (Post-CABG trial, overall): 26%
- reduction in total cholesterol (TC) (Post-CABG trial, overall): 15%
- reduction in LDL-C [2]: 37%
- reduction in total cholesterol (TC) [2]: 23%
- Response in HDL-C and triglycerides (TG) (aggressive versus moderate treatment group): did not differ between the two treatment groups
- Percent change in HDL-C (carriers of LPL haplotype 12-1, mean ± SD): 12.6 ± 24.3 (568) %
- change in triglycerides (carriers of LPL haplotype 12-2): +2.6%
- Percent change in HDL-C (carriers of LPL haplotype 12-2, mean ± SD): 12.4 ± 24.5 (295) %
- Percent change in HDL-C (carriers of LPL haplotype 12-3, mean ± SD): 14.2 ± 23.5 (262) %
- Percent change in HDL-C (carriers of LPL haplotype 12-5, mean ± SD): 11.4 ± 25.6 (61) %
- Percent change in HDL-C (carriers of LPL haplotype 12-6, mean ± SD): 24.8 ± 19.8 (52) %
- Percent change in HDL-C (carriers of LPL haplotype 12-7, mean ± SD): 21.9 ± 24.1 (44) %
- Percent change in HDL-C (carriers of LPL haplotype 12-8, mean ± SD): 23.0 ± 26.0 (43) %
- reduction in LDL-C [3]: 14%
- reduction in total cholesterol (TC) [3]: 7%
- Percent change in HDL-C (non-carriers of LPL haplotype 12-1, mean ± SD): 15.2 ± 24.2 (261) %
- change in triglycerides (non-carriers of LPL haplotype 12-2): +11.8%
- Percent change in HDL-C (non-carriers of LPL haplotype 12-2, mean ± SD): 14.0 ± 24.2 (534) %
- Percent change in HDL-C (non-carriers of LPL haplotype 12-3, mean ± SD): 13.1 ± 24.7 (567) %
- Percent change in HDL-C (non-carriers of LPL haplotype 12-5, mean ± SD): 13.6 ± 24.2 (768) %
- Percent change in HDL-C (non-carriers of LPL haplotype 12-6, mean ± SD): 12.7 ± 24.4 (777) %
- Percent change in HDL-C (non-carriers of LPL haplotype 12-7, mean ± SD): 13.0 ± 24.3 (785) %
- Percent change in HDL-C (non-carriers of LPL haplotype 12-8, mean ± SD): 12.8 ± 24.4 (786) %

Source: patent US20100130600A1, “LIPOPROTEIN LIPASE AND ITS EFFECT ON STATIN TREATMENTS” (CEDARS-SINAI MEDICAL CENTER, priority 2007, published 2010)
